The values below come from paper PMC8143456 (Microorganisms, 2021).

A word on the ΔTm: it is the change in melting temperature against a reference sample. As usually defined, the inhibition is the drop in the measured response relative to a control, in per cent. A word on the EC50: it is the concentration at which the effect is half-maximal. What is called EC90 is the concentration needed for an effect of 90%. Usually IC50 stands for the concentration that gives 50% inhibition. The CC50 is the concentration at which the toxic effect on the cells reaches its halfway point.

One data set concerns the target SARS-CoV-2 nsp14 (Severe acute respiratory syndrome coronavirus 2, UniProt P0DTD1). As to conditions: nsp14, 50 µM compound vs DMSO.
For another data set, the system named is SARS-CoV-2 pseudovirus. Briefly: microbe, parasite or virus in culture. Format: cell-based. As to conditions: for inhibition at 1.1 µM / inhibition at 3.3 µM / inhibition at 10 µM / inhibition at 30 µM: Severe acute respiratory syndrome-related coronavirus, Huh7.5 cells, vs untreated sample, read-out: SARS-CoV-2 Pseudovirus Entry Inhibition (%).
Data set [1] has as its system SARS-CoV-2. In words: microbe, parasite or virus in culture. Format: cell-based. Conditions: for EC50: read-out: Antiviral Activity against SARS-CoV-2 Vero EC50; for EC90: read-out: Antiviral Activity against SARS-CoV-2 Vero EC90; for inhibition at 20 µM: read-out: inhibition of SARS-CoV-2 in the initial antiviral evaluation assay.
Another data set deals with SARS-CoV-2 3CL. Conditions: enzyme-inhibition experiments ref 31; read-out: IC50, antiprotease activity against SARS-CoV-2 3CL; cited from earlier work.
A short description of data set [2]: Cytotoxicity in Calu3 cells. Conditions: human.
The subject of data set [3] is SARS-CoV-2. Briefly: Time-of-drug-addition assay in Vero cells. The class given is cell-based. Conditions: compound at EC90, Vero cells, MOI 0.1.
The next data set deals with SARS-CoV-2 nsp12 (RdRp) (Severe acute respiratory syndrome coronavirus 2, UniProt P0DTD1). As to conditions: nsp12, 50 µM compound vs DMSO.
For data set [4], the target named is SARS-CoV-2 RNA polymerase complex (nsp12/nsp7/nsp8) (Severe acute respiratory syndrome coronavirus 2, UniProt P0DTD1). Briefly: SARS-CoV-2 RdRp primer extension assay. The class given is biochemical. As to conditions: 14-nucleotide RNA product on gel.
The target of data set [5] is SARS-CoV-2 nsp5 (3CL protease) (Severe acute respiratory syndrome coronavirus 2, UniProt P0DTD1). As to conditions: nsp5, 50 µM compound vs DMSO.
Data set [6] concerns SARS-CoV-2. As to conditions: Vero E6 cells ref 31; cited from earlier work.
Data set [7] deals with SARS-CoV-2. Briefly: SARS-CoV-2 antiviral activity assay in Calu-3 cells. The class given is cell-based.
Data set [8] can be described thus: MTS cytotoxicity assay in Vero cells. Conditions: African green monkey.
For data set [9], the system named is SARS-CoV-2 3CL protease (nsp5). Also on record: method as in PMID 32746637. As to conditions: previous report ref 29; read-out: IC50, enzymatic activity of SARS-CoV-2 3CL protease (nsp5); cited from earlier work.
[10] abbreviates: Severe acute respiratory syndrome coronavirus 2, 48 h, Vero cells, MOI 0.1, virus yield 2 days post-treatment.
Setting [11] is: Severe acute respiratory syndrome coronavirus 2, Vero.
[12] abbreviates: Severe acute respiratory syndrome coronavirus 2, human Calu-3 cells, read-out: Antiviral Activity against SARS-CoV-2 Calu-3 EC50.
Setting [13] is: Severe acute respiratory syndrome coronavirus 2, human Calu-3 cells, read-out: Antiviral Activity against SARS-CoV-2 Calu-3 EC90.
[14] abbreviates: Severe acute respiratory syndrome coronavirus 2, Vero, 48 h.

Read-outs that look alike come from different tables or passages of the source.

With `O=c1cc(-c2ccccc2)oc2cc(O)c(O)c(O)c12` [Baicalein, baicalein], the ΔTm at SARS-CoV-2 nsp14 was determined as 1.5 °C. In addition, in the data set on SARS-CoV-2 pseudovirus, the “inhibitory activity on SARS-CoV-2 cell entry (in words)” value is reported as “no inhibitory activity”, the inhibition at 1.1 µM was -2%, the inhibition at 3.3 µM was -1.9% and the inhibition at 10 µM came to 3.9%. Besides, in the data set on SARS-CoV-2 pseudovirus, the inhibition at 30 µM came to 14.6%. Further, in the data set on SARS-CoV-2 [1] (setting [10]), the EC50 turned out to be 4.5 ± 0.2 µM and the EC90 turned out to be 7.6 ± 0.3 µM. In addition, in the data set on SARS-CoV-2 [1] (setting [11]), the inhibition at 20 µM stood at 99.8%. Besides, the IC50 in the data set with SARS-CoV-2 3CL was 0.94 µM. This molecule returned a CC50 in data set [2] (Calu3 cells) of 91 ± 0.05 µM. Further, the “time of addition post-infection up to which replication is significantly inhibited” value with SARS-CoV-2 [3] is reported as “up to 8 h”. The thermal shift (ΔTm) at SARS-CoV-2 nsp12 (RdRp) worked out at 3.9 °C. For the same molecule, the “inhibition of SARS-CoV-2 RdRp activity (in words)” value in data set [4] is “more potent inhibition of SARS-CoV-2 RdRp activity compared to baicalin”. In addition, the thermal shift (ΔTm) in [5] turned out to be 0.9 °C. Further, in the data set with SARS-CoV-2 [6], the concentration for a half-maximal effect (EC50) was 2.94 µM. Besides, the EC50 with SARS-CoV-2 [7] (setting [12]) turned out to be 1200 ± 30 nM. The EC90 in the data set on SARS-CoV-2 [7] (setting [13]) is 6.2 ± 0.04 µM.
As to `O=C(O)[C@H]1O[C@@H](Oc2cc3oc(-c4ccccc4)cc(=O)c3c(O)c2O)[C@H](O)[C@@H](O)[C@@H]1O` [Baicalin, baicalin], in the data set on SARS-CoV-2 pseudovirus, the “inhibitory activity on SARS-CoV-2 cell entry (in words)” value is listed as “no inhibitory activity”, the inhibition at 1.1 µM is -12.1%, the inhibition at 3.3 µM is -11.9% and the inhibition at 10 µM was -6.6%. Moreover, the inhibition at 30 µM in the data set on SARS-CoV-2 pseudovirus was -3.3%. Besides, in the data set on SARS-CoV-2 [1] (setting [10]), the EC50 was determined as 9 ± 0.08 µM and the EC90 was determined as 15.8 ± 0.2 µM. The inhibition at 20 µM in the data set with SARS-CoV-2 [1] (setting [11]) is 98%. In addition, the IC50 with SARS-CoV-2 3CL was 6.41 µM. In addition, the CC50 at 4 days in data set [8] is > 100 µM. The CC50 in data set [2] is > 100 µM. In the data set on SARS-CoV-2 [3], the “time of addition post-infection up to which replication is significantly inhibited” value is “up to 6 h”. Further, the “inhibition of SARS-CoV-2 RdRp activity (in words)” value in data set [4] is reported as “inhibit the activity of the SARS-CoV-2 RdRp”. Moreover, the IC50 in data set [9] is 34.7 µM. Also, the EC50 with SARS-CoV-2 [6] was 27.9 µM. Besides, the EC50 in the data set with SARS-CoV-2 [7] (setting [12]) was determined as 8000 ± 110 nM. The EC90 with SARS-CoV-2 [7] (setting [13]) turned out to be 15.1 ± 0.2 µM.
In the case of `CCC(CC)COC(=O)[C@H](C)N[P@](=O)(OC[C@H]1O[C@@](C#N)(c2ccc3c(N)ncnn23)[C@H](O)[C@@H]1O)Oc1ccccc1` [Remdesivir, reference compound], the half-maximal effective concentration (EC50) was determined as 1 ± 0.1 µM with SARS-CoV-2 [1] (setting [14]) and 140 ± 20 nM in the data set with SARS-CoV-2 [7] (Severe acute respiratory syndrome coronavirus 2, Calu-3, read-out: Antiviral Activity against SARS-CoV-2 Calu-3 EC50). The EC90 with SARS-CoV-2 [1] (setting [14]) stood at 3.3 ± 0.3 µM; in the data set on SARS-CoV-2 [7] (Severe acute respiratory syndrome coronavirus 2, Calu-3, read-out: Antiviral Activity against SARS-CoV-2 Calu-3 EC90), 0.5 ± 0.03 µM. In data set [2], the CC50 was > 100 µM.
